Assay: transport of hyaluronic acid through pig skin (Franz cell)
Protocol: Skin samples (stored at −80° C.) were thawed at 4° C. for approximately 15 hr followed by 1 hr at room temperature prior to use. A thawed pig dermatomed skin sample was mounted horizontally on a Franz cell, dermis side down. […] The receptor phase consisted of PBS pH 7.4 with continuous stirring.
A test formulation, formulated as a suspension was applied to the skin and uniformly dispersed over the skin surface at a surface density of at least 1.0 g/cm^2 to insure pseudo-infinite dose conditions. The formulations consisted of a peptide surfactant of the invention together with hyaluronic acid. The formulations used were as described in the following table: […]
The dose chamber was sealed with an occlusive film to prevent loss of any volatile component of the test formulation. […] Each aliquot was replaced with an equal volume of PBS.
The samples were analyzed for the presence of hyaluronic acid by the Carbazole method as is known in the art.

Compound | HA traversed the skin (pH 7.4) | HA traversed the skin (control, surfactant omitted, 5 mg/ml HA, period of 6 hours, Franz cell, receptor PBS pH 7.4, curve 1 in FIG. 1)
CCCCCCCCCCCC(=O)N(C)CC(=O)[O-].[Na+] [NLS, N Lauroyl Sarcosine Sodium salt] | about 65 ?g/cm^2 | –
hyaluronic acid [HA] | – | about 40 ?g/cm^2

From patent US20120058956A1, “PEPTIDES DERIVED FROM FICOLIN AS SURFACTANTS” (METAMOREFIX LTD., priority 2009, published 2012)
